Experimental data taken from BindingDB's records for doi:10.1016/0960-894X(95)00360-6 (1995).

Assay: Ability to inhibit calf thymus topoisomerase I when assayed in the cleavable complex formation

Structure (SMILES) | IC50 [µM]
CC[C@@]1(O)C(=O)OCc2c1cc1n(c2=O)Cc2cc3cc4ncoc4cc3nc2-1 [7-ethyl-7-hydroxy-(7S)-7,8,11,13-tetrahydro-10H-[1,3]oxazolo[4,5-g]pyrano[3',4':6,7]indolizino[1,2-b]quinoline-8,11-dione] | 0.15
CC[C@@]1(O)C(=O)OCc2c1cc1n(c2=O)Cc2cc3cc(N)c(O)cc3nc2-1 [(S)-9-Amino-4-ethyl-4,8-dihydroxy-1,12-dihydro-4H-2-oxa-6,12a-diaza-dibenzo[b,h]fluorene-3,13-dione] | 0.17
